Results as given in publication PMC6010143, “Synthesis of new pyridothienopyrimidinone derivatives as Pim-1 inhibitors” (Journal of Enzyme Inhibition and Medicinal Chemistry, 2017).
Like-named read-outs stand apart in the source and are kept apart here. Each block holds one compound with its values, some of them ahead of it.

How the values were obtained:
pim-2 = conditions: cited from earlier work
pim-1 = conditions: cited from earlier work
pim-1 kinase = molecular target: T1, pim-1 kinase (Homo sapiens, UniProt P11309); test: Pim-1 kinase radioisotope (33P-ATP) assay, Kinexus compound profiling service; type: biochemical; conditions: for pim-1 inhibition, in words: at 50 μM
T1 construct: The kinase used was cloned, expressed and purified using proprietary methods
Description: The kinase inhibitory activity of the synthesized compounds was determined using the Kinexus compound profiling service, Canada. All the compounds were tested for their inhibitory activity against pim-1 kinase at 50 μM. The kinase used was cloned, expressed and purified using proprietary methods. Quality control testing is routinely performed to ensure compliance to acceptable standards. ^33P-ATP was purchased from PerkinElmer. All other materials were of standard laboratory grade.
The protein kinase target profiling was executed via employing a radioisotope assay format. All the assays were performed in a prepared radioactive working area. The protein kinase profiling assays were performed at room temperature for 20–30 min in a final volume of 25 μL according to the following assay reaction components: Component 1; 5 μl of diluted active protein kinase (∼10–50 nM final concentration in the assay). Component 2; 5 μl of stock solution of substrate. Component 3; 5 μl of kinase assay buffer. Component 4; 5 μl of the test compound, Staurosporine at 1 μM or 10% DMSO.
The assay was initiated by the addition of ^33P-ATP, followed by incubation at ambient temperature for 30 min. The assay was then terminated by spotting 10 μL of the reaction mixture onto a Multiscreen phosphocellulose P81 plate. The Multiscreen phosphocellulose P81 plate was washed three times for approximately 15 min each in a 1% phosphoric acid solution. The radioactivity on the P81 plate was counted in the presence of scintillation fluid in a Trilux scintillation counter. Blank control was set up that included all the assay components except the addition of the appropriate substrate (replaced with equal volume of assay dilution buffer). The corrected activity for protein kinase target was determined by removing the blank control value.

[1] = system: human prostate cancer cells (PC3); test: MTT cytotoxicity assay, PC3; type: cell-based; conditions: for IC50: 72 h exposure, means of three experiments
Description: (§1) Cancer cells from different cancer cell lines were purchased from American type Cell Culture collection (ATCC, Manassas, VA). The cell lines used in this study were human breast adenocarcinoma (MCF7), human colon adenocarcinoma (HCT116) and human prostate cancer cells (PC3). The cell lines were grown on the appropriate growth medium Dulbecco's modified Eagle's medium (DMEM) or Roswell Park Memorial Institute medium (RPMI 1640) supplemented with […] of streptomycin, 100 units/mL of penicillin and 10% of heat-inactivated fetal bovine serum in a humidified, 5% (v/v) CO2 atmosphere at 37 °C.
(§2) Exponentially growing cells from different cancer cell lines were trypsinized, counted and seeded at the appropriate densities (2000–10 000 cells/0.33 cm^2 well) into 96-well microtiter plates. The cells were incubated in a humidified atmosphere at 37°C for 24 h. Then, the cells were exposed to different concentrations of compounds 6c, 7a, 7c, 7d, 8b and 9 (0.1, 10, 100 and 1000 μM) for 72 h. The viability of the treated cells was determined using MTT technique. The media were removed; cells were incubated with 200 μL of 5% MTT solution/well (Sigma Aldrich, St. Louis, MO) and were allowed to metabolize the dye into colored-insoluble formazan crystals for 2 h. The remaining MTT solution was discarded from the wells and the formazan crystals were dissolved in 200 μL/well-acidified isopropanol for 30 min, covered with aluminum foil and with continuous shaking using a MaxQ 2000 plate shaker (Thermo Fisher Scientific Inc, MI) at room temperature. The absorbance was measured at 570 nm using a Stat FaxR 4200 plate reader (Awareness Technology, Inc., Palm City, FL). […] The results are shown in Table 2 and represented graphically in Figure 5.

[2] = system: human breast adenocarcinoma (MCF7); test: MTT cytotoxicity assay, MCF7; type: cell-based; conditions: for IC50: 72 h exposure, means of three experiments
Description: as §1, §2

[3] = system: human colon adenocarcinoma (HCT116); test: MTT cytotoxicity assay, HCT116; type: cell-based; conditions: for IC50: 72 h exposure, means of three experiments
Description: as §1, §2

pim-3 = conditions: cited from earlier work

T1 sequence (P11309 whole entry): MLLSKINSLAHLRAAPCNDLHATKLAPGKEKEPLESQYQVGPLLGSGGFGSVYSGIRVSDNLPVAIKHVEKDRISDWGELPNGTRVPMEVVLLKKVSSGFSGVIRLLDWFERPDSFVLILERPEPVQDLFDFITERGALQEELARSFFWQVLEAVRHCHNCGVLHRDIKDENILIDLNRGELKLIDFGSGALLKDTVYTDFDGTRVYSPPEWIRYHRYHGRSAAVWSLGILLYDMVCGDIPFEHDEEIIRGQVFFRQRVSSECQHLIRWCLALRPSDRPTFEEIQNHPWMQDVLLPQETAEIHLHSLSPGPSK

Compound: O=C(O)c1ccc2c(c1)nc(Nc1cccc(Cl)c1)c1ccncc12 [CX-4595]
- IC50 (pim-2; Figure 1): 0.186 µM
- IC50 (pim-1; Figure 1): 0.048 µM

Compound: Cc1nc2sc(C(N)=O)c(N)c2c(C)c1Br [Compound 4, 3-Amino-5-bromo-4,6-dimethylthieno[2,3-b]pyridine-2-carboxamide]
- inhibition at 50 µM (pim-1 kinase; test compounds at 50 μM): 16%
- melting point: 260 to 261 °C

Compound: Cc1nc2sc3c(=O)[nH]cnc3c2c(C)c1Br [Compound 5, 8-bromo-7,9-dimethylpyrido[3′,2′:4,5]thieno[3,2-d]pyrimidin-4(3H)-one]
- inhibition at 50 µM (pim-1 kinase; test compounds at 50 μM): 37%

Compound: Cc1nc2sc3c(=O)[nH]c(-c4ccccc4Cl)nc3c2c(C)c1Br [Compound 6a, 8-Bromo-2-(2-chlorophenyl)-7,9-dimethylpyrido[3',2':4,5]thieno[3,2-d]pyrimidin-4(3H)-one]
- IC50 (pim-1 kinase): > 100 µM
- inhibition at 50 µM (pim-1 kinase; test compounds at 50 μM): 36%
- melting point: > 300 °C

Compound: Cc1nc2sc3c(=O)[nH]c(-c4ccccc4F)nc3c2c(C)c1Br [Compound 6b, 8-Bromo-2-(2-fluorophenyl)-7,9-dimethylpyrido[3',2':4,5]thieno[3,2-d]pyrimidin-4(3H)-one]
- pim-1 inhibition, in words (pim-1 kinase): moderate
- inhibition at 50 µM (pim-1 kinase; test compounds at 50 μM): 61%
- melting point: 295 to 296 °C

Compound: Cc1nc2sc3c(=O)[nH]c(-c4ccccc4O)nc3c2c(C)c1Br [Compound 6c, 8-Bromo-2-(2-hydroxyphenyl)-7,9-dimethylpyrido[3',2':4,5]thieno[3,2-d]pyrimidin-4(3H)-one]
- cytotoxic activity on PC3, in words [1]: moderate
- IC50 ([1]; Homo sapiens, 72 h): 60.1 ± 4.65 µM
- IC50 (pim-1 kinase): 4.62 ± 0.039 µM
- inhibition at 50 µM (pim-1 kinase; test compounds at 50 μM): 85%
- cytotoxic activity on MCF7, in words [2]: moderate
- IC50 ([2]; Homo sapiens, MCF7, 72 h): 35.5 ± 1.3 µM
- cytotoxic activity on HCT116, in words [3]: moderate
- IC50 ([3]; Homo sapiens, HCT-116, 72 h): 63.3 ± 4.5 µM

Compound: Cc1nc2sc3c(=O)[nH]c(-c4ccccc4C(F)(F)F)nc3c2c(C)c1Br [Compound 6d, 8-Bromo-7,9-dimethyl-2-[2-(trifluoromethyl)phenyl]pyrido[3',2':4,5]thieno[3,2-d]pyrimidin-4(3H)-one]
- pim-1 inhibition, in words (pim-1 kinase): moderate
- inhibition at 50 µM (pim-1 kinase; test compounds at 50 μM): 54%
- melting point: 255 to 256 °C

Compound: Cc1nc2sc3c(c2c(C)c1Br)NC(c1ccccc1Cl)NC3=O (stereo not shown) [Compound 7a, 8-Bromo-2-(2-chlorophenyl)-7,9-dimethyl-2,3-dihydropyrido[3',2':4,5]thieno[3,2-d]pyrimidin-4(1H)-one]
- IC50 [1]: 24.2 ± 0.91 µM
- IC50 ([1]; Homo sapiens, 72 h): 18 to 38 µM
- IC50 (pim-1 kinase): 1.18 ± 0.14 µM
- inhibition at 50 µM (pim-1 kinase; test compounds at 50 μM): 81%
- IC50 [2]: 23.8 ± 0.4 µM
- IC50 ([2]; Homo sapiens, MCF7, 72 h): 18 to 38 µM
- IC50 [3]: 18.3 ± 0.68 µM
- IC50 ([3]; Homo sapiens, HCT-116, 72 h): 18 to 38 µM

Compound: Cc1nc2sc3c(c2c(C)c1Br)NC(c1ccccc1F)NC3=O (stereo not shown) [Compound 7b, 8-Bromo-2-(2-fluorophenyl)-7,9-dimethyl-2,3-dihydropyrido[3',2':4,5]thieno[3,2-d]pyrimidin-4(1H)-one]
- pim-1 inhibition, in words (pim-1 kinase): moderate
- inhibition at 50 µM (pim-1 kinase; test compounds at 50 μM): 66%
- melting point: 292 to 293 °C

Compound: Cc1nc2sc3c(c2c(C)c1Br)NC(c1ccccc1O)NC3=O (stereo not shown) [Compound 7c, 8-Bromo-2-(2-hydroxyphenyl)-7,9-dimethyl-2,3-dihydropyrido[3',2':4,5]thieno[3,2-d]pyrimidin-4(1H)-one]
- cytotoxic activity on PC3, in words [1]: moderate
- IC50 ([1]; Homo sapiens, 72 h): 58.2 ± 3.48 µM
- IC50 (pim-1 kinase): 1.38 ± 0.025 µM
- inhibition at 50 µM (pim-1 kinase; test compounds at 50 μM): 93%
- cytotoxic activity on MCF7, in words [2]: moderate
- IC50 ([2]; Homo sapiens, MCF7, 72 h): 59.6 ± 1.2 µM
- cytotoxic activity on HCT116, in words [3]: moderate
- IC50 ([3]; Homo sapiens, HCT-116, 72 h): 181 ± 5.03 µM

Compound: Cc1nc2sc3c(c2c(C)c1Br)NC(c1ccccc1C(F)(F)F)NC3=O (stereo not shown) [Compound 7d, 8-Bromo-7,9-dimethyl-2-[2-(trifluoromethyl)phenyl]-2,3-dihydropyrido[3',2':4,5]thieno[3,2-d]pyrimidin-4(1H)-one]
- IC50 (pim-1 kinase): 1.97 ± 0.022 µM
- inhibition at 50 µM (pim-1 kinase; test compounds at 50 μM): 98%
- IC50 [2]: 30.2 ± 0.8 µM
- IC50 ([2]; Homo sapiens, MCF7, 72 h): 18 to 38 µM
- IC50 [3]: 30 ± 0.55 µM
- IC50 ([3]; Homo sapiens, HCT-116, 72 h): 18 to 38 µM

Compound: CC(=O)Cc1nc2c(sc3nc(C)c(Br)c(C)c32)c(=O)[nH]1 [Compound 9, 8-Bromo-7,9-dimethyl-2-(2-oxopropyl)pyrido[3',2':4,5]thieno[3,2-d]pyrimidin-4(3H)-one]
- cytotoxic activity on PC3, in words [1]: weak
- IC50 ([1]; Homo sapiens, 72 h): 183 ± 12.1 µM
- IC50 (pim-1 kinase): 4.18 ± 0.076 µM
- inhibition at 50 µM (pim-1 kinase; test compounds at 50 μM): 89%
- cytotoxic activity on MCF7, in words [2]: weak
- IC50 ([2]; Homo sapiens, MCF7, 72 h): 123 ± 12 µM
- cytotoxic activity on HCT116, in words [3]: weak
- IC50 ([3]; Homo sapiens, HCT-116, 72 h): 151 ± 4.04 µM

Compound: CCOC(=O)Cc1nc2c(sc3nc(C)c(Br)c(C)c32)c(=O)[nH]1 [Compound 10, Ethyl (8-bromo-7,9-dimethyl-4-oxo-3,4-dihydropyrido[3',2':4,5]thieno[3,2-d]pyrimidin-2-yl)acetate]
- pim-1 inhibition, in words (pim-1 kinase): poor
- inhibition at 50 µM (pim-1 kinase; test compounds at 50 μM): 31%
- melting point: 277 to 278 °C

Compound: Cc1nc2sc3c(=O)[nH]c(CC(=O)O)nc3c2c(C)c1Br [Compound 11, (8-Bromo-7,9-dimethyl-4-oxo-3,4-dihydropyrido[3',2':4,5]thieno[3,2-d]pyrimidin-2-yl)acetic acid]
- pim-1 inhibition, in words (pim-1 kinase): poor
- inhibition at 50 µM (pim-1 kinase; test compounds at 50 μM): 19%
- melting point: > 300 °C

Compound: NC1CCN(c2ccncc2NC(=O)c2ccc(F)c(-c3c(F)cccc3F)n2)CC1O (stereo not shown) [LGB321]
- Ki (pim-2; Figure 1): 0.0021 nM
- Ki (pim-1; Figure 1): 0.001 nM

Compound: CC(C)(O)[C@H]1CC[C@H](Nc2ccc3ncc(-c4cccc(C(F)(F)F)c4)n3n2)CC1 [SGI-9481]
- Ki (pim-2; Figure 1): 239 nM
- Ki (pim-1; Figure 1): 5 nM
- Ki (pim-3; Figure 1): 0.042 µM

Compound: CN[C@@H]1C[C@H]2O[C@@](C)([C@@H]1OC)n1c3ccccc3c3c4c(c5c6ccccc6n2c5c31)C(=O)NC4 [Staurosporine, reference compound]
- inhibition at 1 µM (pim-1 kinase; read-out: % Inhibition of pim-1 kinase): 93%

Compound: O=c1[nH]c(CNc2cccc(O)c2)nc2c1sc1ccc(Br)cc12 [VII]
- Ki (pim-2; Figure 3): 60 nM
- Ki (pim-1; Figure 3): 0.8 nM
- Ki (pim-3; Figure 3): 0.004 µM

Compound: CN(C)Cc1nc2c(sc3ccc(-c4ccc(O)cc4)cc32)c(=O)[nH]1 [VI]
- Ki (pim-2; Figure 3): 3 nM
- Ki (pim-1; Figure 3): 2 nM
- Ki (pim-3; Figure 3): 0.0005 µM

Compound: COc1ccc(N2CCN(C(=O)c3sc4nc(C)c(Br)c(C)c4c3N)CC2)cc1 [V]
- IC50 (pim-1; Figure 2, earlier thieno[2,3-b]pyridine): 12.7 µM

Now from value to compound, other results behind:

- pim-1 inhibition, in words (pim-1 kinase): moderate
- inhibition at 50 µM (pim-1 kinase; test compounds at 50 μM): 51%
- melting point: > 300 °C
Compound: Cc1nc2c(sc3nc(C)c(Br)c(C)c32)c(=O)[nH]1 [Compound 8a, 8-Bromo-2,7,9-trimethylpyrido[3',2':4,5]thieno[3,2–d]pyrimidin-4(3H)-one]

- IC50 (pim-1 kinase): 8.83 ± 0.028 µM
- inhibition at 50 µM (pim-1 kinase; test compounds at 50 μM): 96%
Compound: Cc1nc2sc3c(=O)[nH]c(C(F)(F)F)nc3c2c(C)c1Br [Compound 8b, 8-Bromo-7,9-dimethyl-2-(trifluoromethyl)pyrido[3',2':4,5]thieno[3,2-d]pyrimidin-4(3H)-one]
- cytotoxic activity on PC3, in words [1]: moderate
- IC50 ([1]; Homo sapiens, 72 h): 59.9 ± 2.48 µM
- cytotoxic activity on MCF7, in words [2]: potent
- IC50 ([2]; Homo sapiens, MCF7, 72 h): 28.6 ± 1 µM
- cytotoxic activity on HCT116, in words [3]: potent
- IC50 ([3]; Homo sapiens, HCT-116, 72 h): 23.5 ± 0.53 µM

- inhibition at 50 µM (pim-1 kinase; test compounds at 50 μM): 23%
- % Inhibition of pim-1 kinase (pim-1 kinase; test compounds at 50 μM, 50 µM): 17%
- melting point: > 300 °C
Compound: CCc1nc2c(sc3nc(C)c(Br)c(C)c32)c(=O)[nH]1 [Compound 8c, 8-Bromo-2-ethyl-7,9-dimethylpyrido[3',2':4,5]thieno[3,2-d]pyrimidin-4(3H)-one]
